Measured values reported in patent US10472401B2, “Peptides and combination of peptides for use in immunotherapy against ovarian cancer and other cancers” (immatics biotechnologies GmbH, priority 2015, dated 2019).

Tests used:
CD8+ T cells = assay: In vitro immunogenicity: priming of CD8+ T cells with aAPCs loaded with peptide/MHC and anti-CD28, multimer staining; assay type: cell-based, human; conditions: for Wells positive [%]: HLA-A*02 restricted peptides, percentage of positive wells (among evaluable); for wells: positive wells
Description: In order to obtain information regarding the immunogenicity of the TUMAPs of the present invention, the inventors performed investigations using an in vitro T-cell priming assay based on repeated stimulations of CD8+ T cells with artificial antigen presenting cells (aAPCs) loaded with peptide/MHC complexes and anti-CD28 antibody.
In order to perform in vitro stimulations by artificial antigen presenting cells loaded with peptide-MHC complex (pMHC) and anti-CD28 antibody, the inventors first isolated CD8+ T cells from fresh HLA-A*02 leukopheresis products via positive selection using CD8 microbeads (Miltenyi Biotec, Bergisch-Gladbach, Germany) of healthy donors obtained from the University clinics Mannheim, Germany, after informed consent.
PBMCs and isolated CD8+ lymphocytes were incubated in T-cell medium (TCM) until use consisting of RPMI-Glutamax (Invitrogen, Karlsruhe, Germany) supplemented with 10% heat inactivated human AB serum (PAN-Biotech, Aidenbach, Germany), 100 U/ml Penicillin/100 μg/ml Streptomycin (Cambrex, Cologne, Germany), 1 mM sodium pyruvate (CC Pro, Oberdorla, Germany), 20 μg/ml Gentamycin (Cambrex). 2.5 ng/ml IL-7 (PromoCell, Heidelberg, Germany) and 10 U/ml IL-2 (Novartis Pharma, Nürnberg, Germany) were also added to the TCM at this step.
Generation of pMHC/anti-CD28 coated beads, T-cell stimulations and readout was performed in a highly defined in vitro system using four different pMHC molecules per stimulation condition and 8 different pMHC molecules per readout condition.
The purified co-stimulatory mouse IgG2a anti human CD28 Ab 9.3 (Jung et al., 1987) was chemically biotinylated using Sulfo-N-hydroxysuccinimidobiotin as recommended by the manufacturer (Perbio, Bonn, Germany). Beads used were 5.6 μm diameter streptavidin coated polystyrene particles (Bangs Laboratories, Illinois, USA).
pMHC used for positive and negative control stimulations were A*0201/MLA-001 (peptide […] (SEQ ID NO. 664) from modified Melan-A/MART-1) and A*0201/DDX5-001 ([…] from DDX5, SEQ ID NO. 665), respectively.
800.000 beads/200 μl were coated in 96-well plates in the presence of 4×12.5 ng different biotin-pMHC, washed and 600 ng biotin anti-CD28 were added subsequently in a volume of 200 μl. Stimulations were initiated in 96-well plates by co-incubating […] CD8+ T cells with 2×10^5 washed coated beads in 200 μl TCM supplemented with 5 ng/ml IL-12 (PromoCell) for 3 days at 37° C. Half of the medium was then exchanged by fresh TCM supplemented with 80 U/ml IL-2 and incubating was continued for 4 days at 37° C. This stimulation cycle was performed for a total of three times. For the pMHC multimer readout using 8 different pMHC molecules per condition, a two-dimensional combinatorial coding approach was used as previously described (Andersen et al., 2012) with minor modifications encompassing coupling to 5 different fluorochromes. Finally, multimeric analyses were performed by staining the cells with Live/dead near IR dye (Invitrogen, Karlsruhe, Germany), CD8-FITC antibody clone SK1 (BD, Heidelberg, Germany) and fluorescent pMHC multimers. For analysis, a BD LSRII SORP cytometer equipped with appropriate lasers and filters was used. Peptide specific cells were calculated as percentage of total CD8+ cells. Evaluation of multimeric analysis was done using the FlowJo software (Tree Star, Oregon, USA). In vitro priming of specific multimer+ CD8+ lymphocytes was detected by comparing to negative control stimulations.
Exemplary flow cytometry results after TUMAP-specific multimer staining for two peptides of the invention are shown in FIG. 3 together with corresponding negative controls.

HLA-A*02:01 = HLA-A*02:01 (Homo sapiens, UniProt P04439, D140Y/D185E/D98H/E176V/E277Q/G131W/G231S/I119V/I121R/I166T/I218V/L300P/L318F/N151K/N90K/P208A/P217A/Q86G/Q94H/R138H/R169H/T345S); assay: MHC binding assay (UV-ligand exchange, ELISA of stabilized MHC complexes); conditions: MHC class I binding score; binding to HLA-A*02:01 ranged by peptide exchange yield (UV-ligand exchange, ELISA)
Summary of the method: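 Binding scored as exchange yield, detected via β2m of stabilized complexes in an HRP/TMB ELISA read at 450 nm after streptavidin capture of 100-fold diluted monomers for 1 h at 37 °C. Complexes came from UV irradiation cleaving a photolabile peptide, exchanged for the candidate.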

IMPDH2 = target: T1, IMPDH2 (Homo sapiens, UniProt P12268); conditions: patients with acute myeloid leukemia and chronic myeloid leukemia in blast crisis; cited from earlier work
T1 construct: host or cells: patients with AML and CML in blast crisis

ovarian cancer = conditions: clinical studies; cited from earlier work

T1 sequence (P12268 2-514 limits assumed): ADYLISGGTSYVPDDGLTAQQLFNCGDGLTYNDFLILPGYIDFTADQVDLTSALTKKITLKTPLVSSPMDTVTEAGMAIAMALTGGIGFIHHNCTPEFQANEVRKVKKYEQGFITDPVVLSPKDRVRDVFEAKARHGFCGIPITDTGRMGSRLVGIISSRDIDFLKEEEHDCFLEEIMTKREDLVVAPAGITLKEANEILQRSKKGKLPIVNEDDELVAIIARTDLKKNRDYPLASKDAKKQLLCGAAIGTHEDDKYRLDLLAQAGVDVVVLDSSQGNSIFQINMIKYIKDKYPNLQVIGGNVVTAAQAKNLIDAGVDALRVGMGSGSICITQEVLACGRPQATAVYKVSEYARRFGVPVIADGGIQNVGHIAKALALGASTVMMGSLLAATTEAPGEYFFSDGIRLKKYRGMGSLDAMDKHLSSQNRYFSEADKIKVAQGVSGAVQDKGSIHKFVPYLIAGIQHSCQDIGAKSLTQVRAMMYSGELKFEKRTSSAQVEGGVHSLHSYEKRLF

Compound | Wells positive [%] (CD8+ T cells) | Peptide exchange (HLA-A*02:01) | further results
2 (SLLEADPFL; listed as Homo sapiens) [compound 2] | ″+″ (<20% = +) | ″+++″ (≥50% = +++) | 
3 (SLASKLTTL; listed as Homo sapiens) [compound 3] | ″+″ (<20% = +) | ″++++″ (≥75% = ++++) | 
8 (FTLGNVVGMYL; listed as Homo sapiens) [compound 8] | ″+″ (<20% = +) | ″++++″ (≥75% = ++++) | 
11 (KIFEMLEGV; listed as Homo sapiens) [compound 11] | ″+″ (<20% = +) | ″+++″ (≥50% = +++) | 
36 (YVLEDLEVTV; listed as Homo sapiens) [compound 36] | ″+″ (<20% = +) | ″++″ (≥20% = ++) | 
38 (FLLEDDIHVS; listed as Homo sapiens) [compound 38] | ″+″ (<20% = +) | ″+++″ (≥50% = +++) | 
48 (ALAELYEDEV; listed as Homo sapiens) [compound 48] | ″+″ (<20% = +) | ″+++″ (≥50% = +++) | 
56 (KLYEGIPVLL; listed as Homo sapiens) [compound 56] | ″+″ (<20% = +) | ″++++″ (≥75% = ++++) | 
60 (SLTIDGIYYV; listed as Homo sapiens) [compound 60] | ″++++″ (> = 70% = ++++) | ″++++″ (≥75% = ++++) | 
79 (SLFIGEKAVLL; listed as Homo sapiens) [compound 79] | ″+″ (<20% = +) | ″+++″ (≥50% = +++) | 
113 (GLLPTPLFGV; listed as Homo sapiens) [compound 113] | ″+″ (<20% = +) | ″+++″ (≥50% = +++) | 
118 (KLIDNNINV; listed as Homo sapiens) [compound 118] | ″+″ (<20% = +) | ″+++″ (≥50% = +++) | 
141 (YLDFSNNRL; listed as Homo sapiens) [compound 141] | ″+″ (<20% = +) | ″++″ (≥20% = ++) | 
143 (LLLDITPEI; listed as Homo sapiens) [compound 143] | ″+″ (<20% = +) | ″++++″ (≥75% = ++++) | 
150 (RLWEEGEELEL; listed as Homo sapiens) [compound 150] | ″+″ (<20% = +) | ″+++″ (≥50% = +++) | 
166 (YLNHLEPPV; listed as Homo sapiens) [compound 166] | ″++++″ (> = 70% = ++++) | ″+++″ (≥50% = +++) | 
199 (ALQDVPLSSV; listed as Homo sapiens) [compound 199] | ″+″ (<20% = +) | ″+++″ (≥50% = +++) | 
247 (VLLPNDLLEKV; listed as Homo sapiens) [compound 247] | ″+″ (<20% = +) | ″+++″ (≥50% = +++) | 
283 (ALYIGDGYVIHLA; listed as Homo sapiens) [compound 283] |  | ″+++″ (≥50% = +++) | wells (CD8+ T cells; HLA class I peptides): + (<20% = +)
319 (SLEPQIQPV; listed as Homo sapiens) [compound 319] | ″+″ (<20% = +) | ″++″ (≥20% = ++) | 

Compound | Wells positive [%] (CD8+ T cells) | Peptide exchange (HLA-A*02:01) | further results
384 (ILFANPNIFV; listed as Homo sapiens) [compound 384] | ″+″ (<20% = +) | ″+++″ (≥50% = +++) | 
443 (GLWEIENNPTV; listed as Homo sapiens) [compound 443] | ″+″ (<20% = +) | ″+++″ (≥50% = +++) | 
460 (AMLEKNYKL; listed as Homo sapiens) [compound 460] | ″+″ (<20% = +) | ″++++″ (≥75% = ++++) | 
489 (KMWEELPEVV; listed as Homo sapiens) [compound 489] | ″+″ (<20% = +) | ″+++″ (≥50% = +++) | 
499 (KIFDIDEAEEGV; listed as Homo sapiens) [compound 499] | ″+″ (<20% = +) | ″++″ (≥20% = ++) | 
511 (FLDPYCSASV; listed as Homo sapiens) [compound 511] | ″+″ (<20% = +) | ″++″ (≥20% = ++) | 
603 (FLIEPEHVNTV; listed as Homo sapiens) [compound 603] | ″+″ (<20% = +) | ″++″ (≥20% = ++) | 
622 (RLLGEEVVRVLQA; listed as Homo sapiens) [compound 622] |  | ″+++″ (≥50% = +++) | 
623 (YLVEDIQHI; listed as Homo sapiens) [compound 623] |  | ″+++″ (≥50% = +++) | 
635 (SLDSTLHAV; listed as Homo sapiens) [compound 635] |  | ″+++″ (≥50% = +++) | 
652 (TLWYRAPEV; listed as Homo sapiens) [compound 652] |  |  | donors (CD8+ T cells; HLA class I peptides, positive donors): ++++ (> = 70% = ++++)
659 (ILFPDIIARA; listed as Homo sapiens) [compound 659] |  |  | wells (CD8+ T cells; HLA class I peptides): + (<20% = +)
662 (KIQEILTQV; listed as Homo sapiens) [compound 662] |  |  | wells (CD8+ T cells; HLA class I peptides): + (<20% = +)
663 (KIQEMQHFL; listed as Homo sapiens) [compound 663] |  |  | wells (CD8+ T cells; HLA class I peptides): + (<20% = +)
NC(=O)c1cccc([C@@H]2O[C@H](CO)[C@@H](O)[C@H]2O)c1 [benzamide riboside] |  |  | clinical response (IMPDH2): good clinical response
MORAb-003: anti-folate receptor alpha antibody |  |  | clinical results in ovarian cancer patients (ovarian cancer): only conferred limited clinical benefit to ovarian cancer patients
bevacizumab |  |  | clinical results in ovarian cancer patients (ovarian cancer): appears to be advantageous
catumaxomab |  |  | clinical results in ovarian cancer patients (ovarian cancer): promising results in phase II and III studies
ipilimumab |  |  | clinical results in ovarian cancer patients (ovarian cancer): significant anti-tumor effects in ovarian cancer patients
oregovomab |  |  | clinical results in ovarian cancer patients (ovarian cancer): promising results in phase II and III studies
